A value given as a limit tells only on which side of the number the result lay.

The test system of this assay is BV-2. Briefly: Antiinflammatory activity in mouse BV2 cells assessed as inhibition of LPS-stimulated nitric oxide production by Griess reagent based spectrophotometric analysis. The class given is functional, cell-based. (The Griess reaction detects nitrite, a stable product of nitric oxide.)
By IC50 is commonly meant the concentration needed to halve the response being measured. For `CC(=O)O[C@H]1CC(C)=C2C(=O)C=C(C)[C@@H]2[C@H]2OC(=O)[C@@H](C)[C@@H]21`, the IC50 is over 100 µM.

Turning to `CC#Cc1cc(O)c(C(C)=O)s1`, the IC50 amounted to 98.5 µM.

Regarding `C/C1=C\C[C@H](O)/C(C)=C/[C@H]2OC(=O)[C@H](C)[C@@H]2CC1`, the IC50 amounted to 27.9 µM.

With `CC1=CC[C@@H]([C@](C)(O)[C@H]2CC[C@@]3(C)[C@@H]4C[C@@H](O)[C@H]5C(C)(C)OC(=O)C=C[C@@]56C[C@@]46CC[C@]23C)OC1=O`, the IC50 is over 100 µM.

For `CC(=O)O[C@H]([C@@H]1C=C(C)C(=O)O1)[C@@H](C)C1[C@@H]2[C@@]3(O)O[C@@]4(CC[C@]12C)C(O)[C@]12OC(=O)C[C@H]1OC(C)(C)[C@@H]2CC[C@H]4C3=O` (stereo partly drawn), the IC50 is 11.9 µM.

Regarding `C/C=C(/C)C(=O)O[C@@H]1C[C@H]2C(C)(C)O[C@@H]3CC(=O)O[C@@]32C[C@@]2(O)C[C@H](O)[C@]34O[C@@]5(C=C(C)C(=O)O5)C[C@@H](C)[C@H]3C[C@@H]3O[C@@]34[C@H]12`, the IC50 is over 100 µM.

For the compound `CC(=O)O[C@H]1C[C@]2(C)O[C@@]23C(=O)C=C(C)C3[C@H]2OC(=O)[C@H](C)[C@H]12` (stereo partly drawn), the IC50 was determined as 6.5 µM.

With `C=C1CC[C@@H](C(C)C)/C=C/C(=O)CC[C@H]1O`, the IC50 is over 100 µM.

For `CC1=C(CC[C@@H](C)O)C(C)(C)C[C@H](O)C1`, the IC50 is over 100 µM.

With `CC(=O)O[C@H]([C@@H]1CC(C)C(=O)O1)[C@@H](C)C1[C@@H]2[C@@]3(O)O[C@@]4(CC[C@]12C)C(O)[C@]12OC(=O)C[C@H]1OC(C)(C)[C@@H]2CC[C@H]4C3=O` (stereo partly drawn), the IC50 was 10.1 µM.

On to `CC#Cc1ccc(C(=O)O)s1`, for which the IC50 came out at 79.5 µM.

On to `CC1=CC(=O)[C@]23O[C@@]2(C)C[C@H](O)[C@@H]2[C@H](OC(=O)[C@@H]2C)[C@@H]13`, for which the IC50 is over 100 µM.

For the compound `O=c1c(O)c(-c2ccc(O)c(O)c2)oc2cc(O)cc(O)c12` [QUERCETIN], the IC50 worked out at 16.3 µM.

Source of the values: ChEMBL document CHEMBL4177683, “New terpenoids and thiophene derivatives from the aerial parts of Artemisia sieversiana” (Bioorg Med Chem Lett, 2017).
